In brackets after ≈: the same amount, converted by molar mass. Read-outs that look alike come from different tables or passages of the source.
Tests used:
[1] = tested on: TEM-52, an antibiotic-resitant E. coli; settings: TEM-52 versus wild-type; Fletcher (2001); cited from earlier work
E. coli/TEM-1 = experiment: Susceptibility testing (MIC, modified NCCLS method); assay type: cell-based, Escherichia coli; settings: Escherichia coli
Method in brief: (§1)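 Readout OD600 increase. Compounds (aqueous or DMSO stocks) serially diluted 2-fold across 20 concentrations, then inoculated with bacterial broth culture to final ~1-1.5×10^6 cells/ml; screening-adapted NCCLS microdilution.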

E. coli N = experiment: as above; assay type: cell-based, Escherichia coli; settings: Escherichia coli; E. coli (N); read-out: MIC
Method in brief: as §1

P. aeruginosa = experiment: as above; assay type: cell-based, Pseudomonas aeruginosa; settings: Pseudomonas aeruginosa, read-out: MIC
Protocol: The NCCLS (National Committee for Clinical Laboratory Standards) method to determine MIC's of antimicrobial compounds was modified for high-throughput screening. All stocks of tested compounds were prepared in either water or in dimethylsulfoxide (DMSO), depending on the solubility. […] Briefly 20 2-fold serial dilutions of testing compounds from the highest concentration were made in a 384-well microtiter plate. Each well was inoculated with testing bacteria in broth to a final concentration of approximately 1-1.5×10^6 cells/ml. Bacterial growth was determined by the increase of optical density at 600 nm using a microplate reader (Tecan SpectraFluor Plus).

Staphylococcus aureus = experiment: as above; assay type: cell-based; settings: Staphylococcus aureus, read-out: MIC
Method in brief: as §1

E. cloacae = experiment: as above; assay type: cell-based, Enterobacter cloacae; settings: Enterobacter cloacae, ATCC23355; E. cloacae ATCC 23355; read-out: MIC
Method in brief: as §1

E. aerogenes = experiment: Susceptibility testing (MIC, modified NCCLS method); assay type: cell-based, Enterobacter aerogenes; settings: Klebsiella aerogenes, ATCC35028; E. aerogenes ATCC 35028; read-out: MIC
Method in brief: as §1

K. pneumoniae = experiment: as above; assay type: cell-based, Klebsiella pneumoniae; settings: Klebsiella pneumoniae, read-out: MIC
Method in brief: as §1

E. faecalis = experiment: as above; assay type: cell-based, Enterococcus faecalis; settings: Enterococcus faecalis, read-out: MIC
Method in brief: as §1

SMILES | fold more resistant than wild-type E coli [1] | MIC (E. coli/TEM-1) [µg/mL] | MIC (E. coli N) [µg/mL] | MIC (P. aeruginosa; ATCC21726, P. aeruginosa ATCC 21726) [µg/mL] | MIC (P. aeruginosa; ATCC29872, P. aeruginosa ATCC 29872) [µg/mL] | MIC (Staphylococcus aureus; ATCC11632, S. aureus ATCC 11632) [µg/mL] | MIC (Staphylococcus aureus; ATCC33594, S. aureus ATCC 33594) [µg/mL] | MIC (Staphylococcus aureus; ATCC700260, S. aureus ATCC 700260) [µg/mL] | MIC (Staphylococcus aureus; ATCC700699, S. aureus ATCC 700699) [µg/mL] | MIC (E. cloacae) [µg/mL] | melting point [°C] | MIC (E. aerogenes) [µg/mL] | MIC (K. pneumoniae; ATCC51503, K. pneumoniae ATCC 51503) [µg/mL] | MIC (K. pneumoniae; ATCC700721, K. pneumoniae ATCC 700721) [µg/mL] | MIC (E. faecalis; ATCC49757, E. faecalis ATCC 49757) [µg/mL] | MIC (E. faecalis; ATCC700802, E. faecalis ATCC 700802) [µg/mL]
CO/N=C(\C(=O)N[C@@H]1C(=O)N2C(C(=O)O)=C(COC(C)=O)CS[C@H]12)c1csc(N)n1 [cefotaxime] | more than 500 fold |  |  |  |  |  |  |  |  |  |  |  |  |  |  | 
O=C(Cn1cnnn1)NC1C(=O)N2C(C(=O)O)=C(COc3cc(Cl)ccc3Oc3ccc(Cl)cc3Cl)CS[C@H]12 (stereo partly shown) [Compound 29, 3-(2-(2,4-Dichlorophenoxy)-5-chlorophenoxy)methyl-7-(1-tetrazoleacetamido)-3-cephem-4-carboxylic acid] |  | 0.063 (≈ 0.103 µM) | 2 (≈ 3.27 µM) | > 32 | > 32 | 0.063 (≈ 0.103 µM) | 0.063 (≈ 0.103 µM) | 0.063 (≈ 0.103 µM) | 0.125 (≈ 0.204 µM) | 1 (≈ 1.63 µM) | 112 | 32 (≈ 52.3 µM) | 8 (≈ 13.1 µM) | 1 (≈ 1.63 µM) | 8 (≈ 13.1 µM) | 16 (≈ 26.2 µM)
